# Assay results from ChEMBL document CHEMBL1121497, “Studies on cardiovascular agents. 6. Synthesis and coronary vasodilating and antihypertensive activities of 1,2,4-triazolo[1,5-a]pyrimidines fused to heterocyclic systems” (1980).
# What was measured:
# Cavia porcellus [1] = species: Cavia porcellus; assay: Integrated vasodilating potency is the product of compound-induced maximum percent decrease in the perfusion pressure and the duration of the effect in minutes at 100 ug (ia); type: functional
# Rattus norvegicus = assay: Hypotensive index (HI) measured as the area under the time-hypotensive response curve for 6-h period at 30 mg/kg, po; type: functional
# Cavia porcellus [2] = species: Cavia porcellus; assay: Integrated vasodilating potency (the product of compound-induced maximum percent decrease in the perfusion pressure and the duration of the effect in minutes at 100 ug (ia); Coronary vasoconstricting action); type: functional
# Canis familiaris [3] = assay: Time taken for increase in coronary blood flow in anesthetized dogs after intravenous administration at 0.1 mg/kg; type: functional, Canis lupus familiaris, Blood/Heart
# Canis familiaris [4] = assay: Time taken for increase in coronary blood flow in anesthetized dogs after intravenous administration at 0.3 mg/kg; type: functional, Canis lupus familiaris, Blood/Heart
# Canis familiaris [5] = assay: Time taken for increase in coronary blood flow in anesthetized dogs after intravenous administration at 1 mg/kg; type: functional, Canis lupus familiaris, Blood/Heart
# Canis familiaris [6] = assay: Percent increase in coronary blood flow in anesthetized dogs after intravenous administration at 0.3 mg/kg; type: functional, Canis lupus familiaris, Artery
# Canis familiaris [7] = assay: Percent increase in coronary blood flow in anesthetized dogs after intravenous administration at 1 mg/kg (p<0.05); type: functional, Canis lupus familiaris, Artery
# Canis familiaris [8] = assay: Percent increase in coronary blood flow in anesthetized dogs after intravenous administration at 0.1 mg/kg; type: functional, Canis lupus familiaris, Artery
# Canis familiaris [9] = assay: Increase in coronary blood flow in anesthetized dogs was measured relative to trapidil (1 mg/kg) after intravenous administration of 0.1 mg/kg; type: functional, Canis lupus familiaris, Artery
# Canis familiaris [10] = assay: Increase in coronary blood flow in anesthetized dogs was measured relative to trapidil (1 mg/kg) after intravenous administration of 0.3 mg/kg; type: functional, Canis lupus familiaris, Artery
# Canis familiaris [11] = assay: Increase in coronary blood flow in anesthetized dogs was measured relative to trapidil (1 mg/kg) after intravenous administration of 1 mg/kg; type: functional, Canis lupus familiaris, Artery
# Canis familiaris [12] = assay: Maximum percent decrease in mean blood pressure in anesthetized dogs after intravenous administration at 0.3 mg/kg; type: functional, Canis lupus familiaris
# Canis familiaris [13] = assay: Maximum percent decrease in mean blood pressure in anesthetized dogs after intravenous administration at 1 mg/kg; type: functional, Canis lupus familiaris
# Cavia porcellus [14] = species: Cavia porcellus; assay: Integrated vasodilating potency (IVP) (the product of compound-induced maximum percent decrease in the perfusion pressure and the duration of the effect in minutes at 100 ug (ia)); type: functional
# Canis familiaris [15] = assay: Maximum percent decrease in mean blood pressure in anesthetized dogs after intravenous administration at 0.1 mg/kg; type: functional, Canis lupus familiaris
SMILES,HI (Rattus norvegicus),IVP (Cavia porcellus [2]),also measured
CCCCCCCN1CCc2c(C)nc3ncnn3c21,30,,IVP (Cavia porcellus [1]): 184
Cc1nc2ncnn2c2c1CCN2CC(C)O (stereo not given),5,Coronary vasoconstricting action,
Cc1nc2nc(-c3ccccc3)nn2c2c1CCN2C(C)(C)C,0,Coronary vasoconstricting action,
Cc1nc2nc(-c3ccccc3)nn2c2c1CCN2C(C)C,0,Coronary vasoconstricting action,
COc1ccc(-c2nc3nc(C)c4c(n3n2)N(C(C)(C)C)CC4)cc1,13,Coronary vasoconstricting action,
Cc1nc2ncnn2c2c1CCN2C(C)(C)C [BUMEPIDIL],181,,Duration (Canis familiaris [3]): 4.3 min; Duration (Canis familiaris [4]): 9.3 min; Duration (Canis familiaris [5]): 10.6 min; Max (Canis familiaris [6]): 132.3%; Max (Canis familiaris [7]): 219.8%; Max (Canis familiaris [8]): 34.7%; Relative potency (Canis familiaris [9]): 0.7; Relative potency (Canis familiaris [10]): 3.8; Relative potency (Canis familiaris [11]): 8.4; Decrease (Canis familiaris [12]): -11.7%; Decrease (Canis familiaris [13]): -32.3%; IVP (Cavia porcellus [14]): 815; Decrease (Canis familiaris [15]): -3.3%
CCCCN1CCc2c(C)nc3nc(-c4ccccc4)nn3c21,10,Coronary vasoconstricting action,
Cc1nc2ncnn2c2c1CCN2C1CCCCCCC1,15,Coronary vasoconstricting action,
COc1cc(-c2nc3nc(C)c4c(n3n2)N(Cc2ccccc2Cl)CC4)cc(OC)c1OC,0,Coronary vasoconstricting action,
